Data as given in patent US4319028A, “7-(2-(Substituted benzoyl)amino)acetamido)cephalosporins” (Eli Lilly and Company, priority 1976, dated 1982).
Converted amounts (≈) assume the structure as drawn. Read-outs that look alike come from different tables or passages of the source.

What was measured:
[1] = tested on: X466 (methicillin resistant Staphylococcus); test: Antibiotic activity (MIC), Gradient Plate in vitro method, X466; format: cell-based; details: read-out: Minimum Inhibitory Concentration
Description: The antibiotic activity of the cephalosporin compounds of the present invention is illustrated by the data presented in Table I for representative compounds. The values in the table are the minimum inhibitory concentrations (MIC) for the test compounds against the indicated microorganisms. The MIC values were obtained in the Gradient Plate in vitro method for determining antibiotic activity. […]

Shigella sp. = test: Antibiotic activity (MIC), Gradient Plate in vitro method, Shigella sp.; format: cell-based; details: read-out: Minimum Inhibitory Concentration
Description: (§1) The antibiotic activity of the cephalosporin compounds of the present invention is illustrated by the data presented in Table I for representative compounds. The values in the table are the minimum inhibitory concentrations (MIC) for the test compounds against the indicated microorganisms. The MIC values were obtained in the Gradient Plate in vitro method for determining antibiotic activity.

Serratia marcescens = test: Antibiotic activity (MIC), Gradient Plate in vitro method, Serratia marcescens; format: cell-based; details: read-out: Minimum Inhibitory Concentration
Description: as §1

Aerobacter Aerogenes = test: Antibiotic activity (MIC), Gradient Plate in vitro method, Aerobacter Aerogenes; format: cell-based; details: Klebsiella aerogenes, read-out: Minimum Inhibitory Concentration
Description: (§2) The values in the table are the minimum inhibitory concentrations (MIC) for the test compounds against the indicated microorganisms. The MIC values were obtained in the Gradient Plate in vitro method for determining antibiotic activity.

Klebsiella pneumoniae = test: Antibiotic activity (MIC), Gradient Plate in vitro method, Klebsiella pneumoniae; format: cell-based; details: read-out: Minimum Inhibitory Concentration
Description: as §2

Titration (pKa) = format: physicochemical; details: 66% dmf-34% h2o, titration (66% DMF-34% H2O)
Escherichia coli = test: Antibiotic activity (MIC), Gradient Plate in vitro method, Escherichia coli; format: cell-based; details: read-out: Minimum Inhibitory Concentration
Description: as §2

[2] = tested on: V84 (penicillin resistant Staphylococcus); test: Antibiotic activity (MIC), Gradient Plate in vitro method, V84; format: cell-based; details: read-out: Minimum Inhibitory Concentration
Description: as §1
(§3) ^1 Test organisms V41, V32, and V84 are penicillin resistant

[3] = tested on: V41 (penicillin resistant Staphylococcus); test: Antibiotic activity (MIC), Gradient Plate in vitro method, V41; format: cell-based; details: read-out: Minimum Inhibitory Concentration
Description: as §1, §3

Pseudomonas Aeruginosa = test: Antibiotic activity (MIC), Gradient Plate in vitro method, Pseudomonas Aeruginosa; format: cell-based; details: read-out: Minimum Inhibitory Concentration
Description: as §2

[4] = tested on: V32 (penicillin resistant Staphylococcus); test: Antibiotic activity (MIC), Gradient Plate in vitro method, V32; format: cell-based; details: read-out: Minimum Inhibitory Concentration
Description: as §1, §3

Salmonella heidelberg = test: Antibiotic activity (MIC), Gradient Plate in vitro method, Salmonella heidelberg; format: cell-based; details: Salmonella enterica, read-out: Minimum Inhibitory Concentration
Description: as §2

[5] = first pKa, read-out: pKa (first value)
[6] = second pKa, read-out: pKa (second value)
[7] = Gradient Plate in vitro, V84, penicillin resistant Staphylococcus
[8] = Gradient Plate in vitro, V41, penicillin resistant Staphylococcus
[9] = Gradient Plate in vitro, V32, penicillin resistant Staphylococcus
[10] = third pKa, read-out: pKa (third value)

Row | SMILES | MIC [1] [µg/mL] | MIC (Shigella sp.) [µg/mL] | MIC (Serratia marcescens) [µg/mL] | MIC (Aerobacter Aerogenes) [µg/mL] | MIC (Klebsiella pneumoniae) [µg/mL] | pKa (Titration (pKa); [5]) | pKa (Titration (pKa); [6]) | MIC (Escherichia coli) [µg/mL] | MIC [2, 7] [µg/mL] | MIC [3, 8] [µg/mL] | MIC (Pseudomonas Aeruginosa) [µg/mL] | MIC [4, 9] [µg/mL] | MIC (Salmonella heidelberg) [µg/mL] | pKa (Titration (pKa); [10]) | MIC ([2]; Staphylococcus) [µg/mL] | MIC ([4]; Staphylococcus) [µg/mL] | MIC ([3]; Staphylococcus) [µg/mL]
1 | Cn1nnnc1SCC1=C(C(=O)O)N2C(=O)C(NC(=O)[C@H](NC(=O)c3cccc(O)c3O)c3ccccc3)C2SC1 (stereo partly drawn) [Example 1, 7-[D-[2-Phenyl-2-[(2,3-dihydroxybenzoyl)amino]acetyl]amino]-3-[[(1-methyltetrazol-5-yl)thio]methyl]-3-cephem-4-carboxylic acid] | 136 (≈ 228 µM) | 3.7 (≈ 6.19 µM) | 16.4 (≈ 27.4 µM) | 5.4 (≈ 9.04 µM) | 10 (≈ 16.7 µM) | 5.31 | 8.73 | 14.8 (≈ 24.8 µM) | 10.3 (≈ 17.2 µM) | 15.1 (≈ 25.3 µM) | 13.8 (≈ 23.1 µM) | 132 (≈ 221 µM) | 0.5 (≈ 0.837 µM) |  |  |  | 
2 | Cn1nnnc1SCC1=C(C(=O)O)N2C(=O)C(NC(=O)[C@H](NC(=O)c3cc(O)ccc3O)c3ccc(O)cc3)C2SC1 (stereo partly drawn) [Example 15, 7-[D-[2-(4-Hydroxyphenyl)-2-[(2,5-dihydroxybenzoyl)-amino]acetyl]amino]-3-[[(1-methyltetrazol-5-yl)thio]-methyl]-3-cephem-4-carboxylic acid] | > 200 | 26.5 (≈ 43.2 µM) | > 200 | 43.5 (≈ 70.9 µM) | 32.2 (≈ 52.5 µM) | 5.08 | 11 | 28 (≈ 45.6 µM) | 10 (≈ 16.3 µM) | 15 (≈ 24.4 µM) | > 200 | 13 (≈ 21.2 µM) | 17.8 (≈ 29 µM) | 12.5 |  |  | 
3 | Cc1nnc(SCC2=C(C(=O)O)N3C(=O)C(NC(=O)[C@H](NC(=O)c4cc(O)c(O)c(O)c4)c4ccc(O)cc4)C3SC2)s1 (stereo partly drawn) [Example 6, 7-[D-[2-(4-Hydroxyphenyl)-2-[(3,4,5-trihydroxybenzoyl)-amino]acetyl]amino]-3-[[(5-methyl-1,3,4-thiadiazol-2-yl)thio]methyl]-3-cephem-4-carboxylic acid] | 130 (≈ 201 µM) | 5.8 (≈ 8.98 µM) | > 200 | 8.4 (≈ 13 µM) | 3.9 (≈ 6.04 µM) | 4.88 |  | 21.7 (≈ 33.6 µM) | 3.2 (≈ 4.96 µM) | 6.6 (≈ 10.2 µM) | 6 (≈ 9.29 µM) | 8.6 (≈ 13.3 µM) | 0.7 (≈ 1.08 µM) |  |  |  | 
4 | Cn1nnnc1SCC1=C(C(=O)O)N2C(=O)C(NC(=O)[C@H](NC(=O)c3cccc(O)c3O)c3ccc(O)cc3)C2SC1 (stereo partly drawn) [Example 3, 7-[D-[2-(4-Hydroxyphenyl)-2-[(2,3-dihydroxybenzoyl)amino]acetyl]amino]-3-[[(1-methyltetrazol-5-yl)thio]methyl]-3-cephem-4-carboxylic acid] | 130 (≈ 212 µM) | 7 (≈ 11.4 µM) | 80 (≈ 130 µM) | 6.6 (≈ 10.8 µM) | 4.1 (≈ 6.68 µM) | 5.02 | 8.83 | 13.2 (≈ 21.5 µM) | 22 (≈ 35.9 µM) | 23 (≈ 37.5 µM) | 5.3 (≈ 8.64 µM) | 23 (≈ 37.5 µM) | 1 (≈ 1.63 µM) |  |  |  | 
5 | Cc1nnc(SCC2=C(C(=O)O)N3C(=O)C(NC(=O)[C@H](NC(=O)c4ccc(O)c(O)c4O)c4ccc(O)cc4)C3SC2)s1 (stereo partly drawn) [Example 7, 7-[D-[2-(4-Hydroxyphenyl)-2-[(2,3,4-trihydroxybenzoyl)-amino]-acetyl]amino]-3-[[(5-methyl-1,3,4-thiadiazol-2-yl)thio]methyl]-3-cephem-4-carboxylic acid] | > 200 | 50 (≈ 77.4 µM) | > 200 | 57.5 (≈ 89.1 µM) | 52.5 (≈ 81.3 µM) |  |  | 100 (≈ 155 µM) | 25 (≈ 38.7 µM) | 60 (≈ 92.9 µM) | 25 (≈ 38.7 µM) | 60 (≈ 92.9 µM) | 16 (≈ 24.8 µM) |  |  |  | 
6 | Cc1nnc(SCC2=C(C(=O)O)N3C(=O)C(NC(=O)[C@H](NC(=O)c4cc(O)c(O)c(O)c4O)c4ccc(O)cc4)C3SC2)s1 (stereo partly drawn) [Example 14, 7-[D-[2-(4-Hydroxyphenyl)-2-[(2,3,4,5-tetrahydroxybenzoyl)amino]acetyl]amino]-3-[[(1-methyl-1,3,4-thiadiazol-2-yl)thio]methyl]-3-cephem-4-carboxylic acid] | 134 (≈ 203 µM) | 5.7 (≈ 8.61 µM) | > 200 | 9.1 (≈ 13.8 µM) | 5 (≈ 7.56 µM) | 4.98 | 7.63 | 10.1 (≈ 15.3 µM) | 6.2 (≈ 9.37 µM) | 7.2 (≈ 10.9 µM) | 92 (≈ 139 µM) | 7.1 (≈ 10.7 µM) | 3 (≈ 4.53 µM) | 9.69 |  |  | 
7 | Cc1nnc(SCC2=C(C(=O)O)N3C(=O)C(NC(=O)[C@H](NC(=O)c4c(O)cc(O)cc4O)c4ccc(O)cc4)C3SC2)s1 (stereo partly drawn) [Example 8, 7-[D-[2-(4-Hydroxyphenyl)-2-[(2,4,6-trihydroxybenzoyl)-amino]acetyl]amino]-3-[[(5-methyl-1,3,4-thiadiazol-2-yl)thio]methyl]-3-cephem-4-carboxylic acid] | 120 (≈ 186 µM) | 100 (≈ 155 µM) | > 200 | 140 (≈ 217 µM) | 110 (≈ 170 µM) |  |  | 120 (≈ 186 µM) |  | 10.5 (≈ 16.3 µM) | 100 (≈ 155 µM) |  | 110 (≈ 170 µM) |  | 10 (≈ 15.5 µM) | 10 (≈ 15.5 µM) | 
8 | Cn1nnnc1SCC1=C(C(=O)O)N2C(=O)C(NC(=O)[C@H](NC(=O)c3cc(O)cc(O)c3)c3ccc(O)cc3)C2SC1 (stereo partly drawn) [Example 16, 7-[D-[2-(4-Hydroxyphenyl)-2-[(3,5-dihydroxybenzoyl)-amino]acetyl]amino]-3-[[(1-methyltetrazol-5-yl)thio]-methyl]-3-cephem-4-carboxylic acid] | 112 (≈ 183 µM) | 9.8 (≈ 16 µM) | > 200 | 22 (≈ 35.9 µM) | 17.4 (≈ 28.4 µM) | 5.22 | 11.7 | 16.5 (≈ 26.9 µM) | 2.7 (≈ 4.4 µM) | 4.5 (≈ 7.33 µM) | > 200 | 1.9 (≈ 3.1 µM) | 8.1 (≈ 13.2 µM) | ≥ 12 |  |  | 
9 | Cc1nnc(SCC2=C(C(=O)O)N3C(=O)C(NC(=O)[C@H](NC(=O)c4cccc(O)c4)c4ccc(O)cc4)C3SC2)s1 (stereo partly drawn) [Example 10, 7-[D-[2-(4-Hydroxyphenyl)-2-[(3-hydroxybenzoyl)amino]-acetyl]amino]-3-[[(5-methyl-1,3,4-thiadiazol-2-yl)thio]-methyl]-3-cephem-4-carboxylic acid] | 92 (≈ 150 µM) | 10.4 (≈ 16.9 µM) | > 200 | 65.5 (≈ 107 µM) | 16.8 (≈ 27.4 µM) | 5.02 | 11.9 | 28.8 (≈ 46.9 µM) |  |  | > 200 |  | 26 (≈ 42.4 µM) |  | 1 (≈ 1.63 µM) | 1 (≈ 1.63 µM) | 1 (≈ 1.63 µM)
10 | Cc1nnc(SCC2=C(C(=O)O)N3C(=O)C(NC(=O)[C@H](NC(=O)c4ccc(N)c(N)c4)c4ccc(O)cc4)C3SC2)s1 (stereo partly drawn) [Example 13, 7-[D-[2-(4-Hydroxyphenyl)-2-[(3,4-diaminobenzoyl)amino]-acetyl]amino]-3-[[(5-methyl-1,3,4-thiadiazol-2-yl)-thio]methyl]-3-cephem-4-carboxylic acid] | 126 (≈ 201 µM) | 13.8 (≈ 22 µM) | 116 (≈ 185 µM) | 33.2 (≈ 52.9 µM) | 14.8 (≈ 23.6 µM) |  |  | 19 (≈ 30.3 µM) |  | 4.6 (≈ 7.33 µM) | 31.5 (≈ 50.2 µM) | 5.2 (≈ 8.28 µM) | 14.6 (≈ 23.3 µM) |  | 5 (≈ 7.97 µM) |  | 
11 | Cc1nnc(SCC2=C(C(=O)O)N3C(=O)C(NC(=O)[C@H](NC(=O)c4c(O)cccc4O)c4ccc(O)cc4)C3SC2)s1 (stereo partly drawn) [Example 5, 7-[D-[2-(4-Hydroxyphenyl)-2-[(2,6-dihydroxybenzoyl)-amino]acetyl]amino]-3-[[(5-methyl-1,3,4-thiadiazol-2-yl)thio]methyl]-3-cephem-4-carboxylic acid] | 60 (≈ 95.3 µM) | 48 (≈ 76.2 µM) | > 200 | 110 (≈ 175 µM) | 29.5 (≈ 46.8 µM) | 5.2 | 9.13 | 96 (≈ 152 µM) | 1.3 (≈ 2.06 µM) | 3.7 (≈ 5.88 µM) | 27.5 (≈ 43.7 µM) | 4.6 (≈ 7.31 µM) | 82 (≈ 130 µM) |  |  |  | 
12 | Cn1nnnc1SCC1=C(C(=O)O)N2C(=O)C(NC(=O)[C@H](NC(=O)c3ccc(O)c(O)c3)c3ccc(O)cc3)C2SC1 (stereo partly drawn) [Example 2, 7-[D-[2-(4-Hydroxyphenyl)-2-[(3,4-dihydroxybenzoyl)amino]acetyl]amino]-3-[[(1-methyltetrazol-5-yl)thio]methyl]-3-cephem-4-carboxylic acid] | 8.4 (≈ 13.7 µM) | 1 (≈ 1.63 µM) | > 200 | 4 (≈ 6.52 µM) | 0.8 (≈ 1.3 µM) | 4.1 | 10.9 | 8.5 (≈ 13.9 µM) | 3.2 (≈ 5.21 µM) | 3.6 (≈ 5.87 µM) | 4.9 (≈ 7.99 µM) | 3.8 (≈ 6.19 µM) | 0.2 (≈ 0.326 µM) |  |  |  | 
